{"source": "patent US6908926B1", "about": "“Substituted imidazoles, their preparation and use” (Novo Nordisk A/S, priority 1999, dated 2005)", "data": [{"units": {"melting point": "°C"}, "values": [{"molecule": "Cc1ccc(COC(=O)N2CCc3[nH]cnc3C2)c(C)c1.O=C(O)C(=O)O", "note": "[Example 28, 4,5,6,7-Tetrahydroimidazo[4,5-c]pyridine-5-carboxylic Acid 2,4-dimethylbenzyl Ester Oxalate]", "melting point": "176 to 178"}, {"molecule": "O=C(O)C(=O)O.O=C(OCCc1cccs1)N1CCc2nc[nH]c2C1", "note": "[Example 36, 4,5,6,7-Tetrahydroimidazo[4,5-c]pyridine-5-carboxylic Acid 2-thiophen-2-ylethyl Ester Oxalate]", "melting point": "173 to 175"}, {"molecule": "CCc1ccc(COC(=O)N2CCc3nc[nH]c3C2)cc1.O=C(O)C(=O)O", "note": "[Example 34, 4,5,6,7-Tetrahydroimidazo[4,5-c]pyridine-5-carboxylic Acid 4-ethylbenzyl Ester Oxalate]", "melting point": "171 to 173"}, {"molecule": "O=C(O)C(=O)O.O=C(OCC1CCCCC1)N1CCc2nc[nH]c2C1", "note": "[Example 41, 4,5,6,7-Tetrahydroimidazo[4,5-c]pyridine-5-carboxylic Acid Cyclohexylmethyl Ester Oxalate]", "melting point": "176 to 178"}, {"molecule": "O=C(O)C(=O)O.O=C(OCCc1ccsc1)N1CCc2nc[nH]c2C1", "note": "[Example 37, 4,5,6,7-Tetrahydroimidazo[4,5-c]pyridine-5-carboxylic Acid 2-thiophen-3-ylethyl Ester Oxalate]", "melting point": "193 to 194"}, {"molecule": "COc1cccc(COC(=O)N2CCc3[nH]cnc3C2)c1.O=C(O)C(=O)O", "note": "[Example 19, 4,5,6,7-Tetrahydroimidazo[4,5-c]pyridine-5-carboxylic Acid 3-methoxybenzyl Ester Oxalate]", "melting point": "163 to 165"}, {"molecule": "Cc1cccc(CCOC(=O)N2CCc3[nH]cnc3C2)c1.O=C(O)C(=O)O", "note": "[Example 24, 4,5,6,7-Tetrahydroimidazo[4,5-c]pyridine-5-carboxylic Acid 2-(3-methylphenyl)ethyl Ester Oxalate]", "melting point": "155 to 157"}, {"molecule": "CC(C)c1ccc(COC(=O)N2CCc3nc[nH]c3C2)cc1.O=C(O)C(=O)O", "note": "[Example 31, 4,5,6,7-Tetrahydroimidazo[4,5-c]pyridine-5-carboxylic Acid 4-isopropylbenzyl Ester Oxalate]", "melting point": "166 to 168"}, {"molecule": "O=C(O)C(=O)O.O=C(OCCC1CCCCC1)N1CCc2nc[nH]c2C1", "note": "[Example 40, 4,5,6,7-Tetrahydroimidazo[4,5-c]pyridine-5-carboxylic Acid 2-cyclohexylethyl Ester Oxalate]", "melting point": "174 to 176"}, {"molecule": "Cc1cccc(COC(=O)N2CCc3[nH]cnc3C2)c1.O=C(O)C(=O)O", "note": "[Example 21, 4,5,6,7-Tetrahydroimidazo[4,5-c]pyridine-5-carboxylic Acid 3-methylbenzyl Ester Oxalate]", "melting point": "169 to 171"}, {"molecule": "O=C(O)C(=O)O.O=C(OCc1ccccc1Cl)N1CCc2nc[nH]c2C1", "note": "[Example 42, 4,5,6,7-Tetrahydroimidazo[4,5-c]pyridine-5-carboxylic Acid 2-chlorobenzyl Ester Oxalate]", "melting point": "173 to 175"}]}]}
